For one compound, IC50 results are on record in patent publication US8163769B2, “Antibacterial compounds” (Abbott Laboratories, priority 2002, dated 2012).

pIC50: −log10 of the molar value.

For this test, the target named is bacterial protein synthesis (S30 extract from quinolone-succeptable Streptococcus pneumoniae ATCC 46919). Put plainly: Translation assay, firefly luciferase reporter system with S30 Streptococcus pneumoniae extract. In kind it is biochemical. Conditions: cell-free S30 Streptococcus pneumoniae extract, luciferase mRNA; read-out: IC50, concentration which caused 50% inhibition of bacterial protein synthesis. On the procedure:
Bacterial protein synthesis inhibitory activity of the compounds and the aformentioned commercially-available antibacterials was determined by translation assays performed using the firefly luciferase reporter system described by Murray et al., (2001), “Staphylococcus aureus Cell Extract Transcription-Translation Assay: Firefly Luciferase Reporter System for Evaluating Protein Translation Inhibitors,” Antimicrob. Agents Chemother. 45(6): 1900-1904, replacing the Staphylococcus aureus S30 extract described therein with S30 Streptococcus pneumoniae extract from quinolone-succeptable Streptococcus pneumoniae ATCC 46919, and replacing plasmid coding for the luciferase gene with mRNA (encoding produced by in vitro transcription from the plasmid pAS10rbs3) which encoded the luciferase gene with an upstream Streptococcus pneumoniae promoter and Shine-Dalgarno site.
A general note: Reporter assays use an easily measured gene product as a stand-in for the process of interest.

For `CC(=O)NC[C@H]1CN(c2ccc(N3CCOCC3)c(F)c2)C(=O)O1` [Linezolid], the pIC50 is about 5.52.
